# Measured values published in PubChem BioAssay AID1963842 (Molecular Pharmacology Branch, DTP, NCI, 2024).
# Tested on: 677734-321-R-J1-PDC complex spheroid viability
# Experiment: Anticancer human tumor 677734-321-R-J1-PDC patient-derived soft tissue sarcoma cell line growth inhibition [POLQ]
# Settings: for IC50: curve of first compound; for viability, T/C: stronger effect = lower value
# Outline: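 Three-cell-type spheroids modelling solid tumor plus stroma served as the readout system; POL inhibitors were tested individually and in combination, concentration ranges set by clinical Cmax where known.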
# 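Further: spheroids exposed to compounds for one week.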
# 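Wherever viability, T/C is given: 100% = vehicle DMSO treated spheroids.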
smiles,measurement,setting,value
O=c1[nH]cc(F)c(=O)[nH]1 + COC1C(OC(N)=O)C(O)C(Oc2ccc3c(O)c(NC(=O)c4ccc(O)c(CC=C(C)C)c4)c(=O)oc3c2C)OC1(C)C,IC50,second compound 0.0316 µM,2.78 µM
same,IC50,second compound 0.1 µM,3.13 µM
same,IC50,second compound 0.316 µM,2.91 µM
same,IC50,second compound 1 µM,3.15 µM
same,IC50,second compound 3.16 µM,6.55 µM
same,IC50,second compound 10 µM,2.87 µM
same,"viability, T/C","second compound 0.0316 µM, first compound 0.0316 µM",113%
same,"viability, T/C","second compound 0.0316 µM, first compound 0.1 µM",98.6%
same,"viability, T/C","second compound 0.0316 µM, first compound 0.316 µM",106%
same,"viability, T/C","second compound 0.0316 µM, first compound 1 µM",94.8%
same,"viability, T/C","second compound 0.0316 µM, first compound 3.16 µM",44.4%
same,"viability, T/C","second compound 0.0316 µM, first compound 10 µM",40.5%
same,"viability, T/C","second compound 0.1 µM, first compound 0.0316 µM",111%
same,"viability, T/C","second compound 0.1 µM, first compound 0.1 µM",103%
same,"viability, T/C","second compound 0.1 µM, first compound 0.316 µM",103%
same,"viability, T/C","second compound 0.1 µM, first compound 1 µM",91.9%
same,"viability, T/C","second compound 0.1 µM, first compound 3.16 µM",49.3%
same,"viability, T/C","second compound 0.1 µM, first compound 10 µM",43.2%
same,"viability, T/C","second compound 0.316 µM, first compound 0.0316 µM",107%
same,"viability, T/C","second compound 0.316 µM, first compound 0.1 µM",102%
same,"viability, T/C","second compound 0.316 µM, first compound 0.316 µM",108%
same,"viability, T/C","second compound 0.316 µM, first compound 1 µM",98.5%
same,"viability, T/C","second compound 0.316 µM, first compound 3.16 µM",46.2%
same,"viability, T/C","second compound 0.316 µM, first compound 10 µM",37.1%
same,"viability, T/C","second compound 1 µM, first compound 0.0316 µM",117%
same,"viability, T/C","second compound 1 µM, first compound 0.1 µM",101%
same,"viability, T/C","second compound 1 µM, first compound 0.316 µM",112%
same,"viability, T/C","second compound 1 µM, first compound 1 µM",91.6%
same,"viability, T/C","second compound 1 µM, first compound 3.16 µM",50.2%
same,"viability, T/C","second compound 1 µM, first compound 10 µM",41.1%
same,"viability, T/C","second compound 3.16 µM, first compound 0.0316 µM",106%
same,"viability, T/C","second compound 3.16 µM, first compound 0.1 µM",101%
same,"viability, T/C","second compound 3.16 µM, first compound 0.316 µM",121%
same,"viability, T/C","second compound 3.16 µM, first compound 1 µM",83.7%
same,"viability, T/C","second compound 3.16 µM, first compound 3.16 µM",63.1%
same,"viability, T/C","second compound 3.16 µM, first compound 10 µM",42.8%
same,"viability, T/C","second compound 10 µM, first compound 0.0316 µM",105%
same,"viability, T/C","second compound 10 µM, first compound 0.1 µM",107%
same,"viability, T/C","second compound 10 µM, first compound 0.316 µM",115%
same,"viability, T/C","second compound 10 µM, first compound 1 µM",89.7%
same,"viability, T/C","second compound 10 µM, first compound 3.16 µM",47.5%
same,"viability, T/C","second compound 10 µM, first compound 10 µM",43.3%
